The text below walks through data of ChEMBL document CHEMBL1201861, “Genomics of Drug Sensitity in Cancer screening data, Wellcome Trust Sanger Institute”.

Broadly, the IC50 is the concentration at which inhibition is half-maximal. Read a low IC50 as greater potency.

The test system of the first assay is CTV-1. The assay can be described thus: cells. Type of assay: functional, cell-based, Homo sapiens. As to conditions: Homo sapiens, CTV-1.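 Also: growth inhibition of the cell line, read out with a cell viability assay.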
Description: SANGER: Inhibition of human CTV-1 cell growth in a cell viability assay.
Turning to `Cc1cc(N2CCOCC2)cc2[nH]c(-c3c(NC[C@@H](O)c4cccc(Cl)c4)cc[nH]c3=O)nc12`, half-maximal inhibition (IC50) required 2.88 µM.

Another assay relates to K562. The assay can be described thus: cells. As to conditions: Homo sapiens, K562. Type of assay: functional, cell-based, Homo sapiens.
Description: SANGER: Inhibition of human K-562 cell growth in a cell viability assay.
Molecule `Cc1cc(N2CCOCC2)cc2[nH]c(-c3c(NC[C@@H](O)c4cccc(Cl)c4)cc[nH]c3=O)nc12` had an IC50 above 5.12 µM.

A further assay deals with NB10. The assay can be described thus: cells. The format is functional, cell-based, Homo sapiens. The conditions noted are these: Homo sapiens, NB10.
Description: SANGER: Inhibition of human NB10 cell growth in a cell viability assay.
The molecule `Cc1cc(N2CCOCC2)cc2[nH]c(-c3c(NC[C@@H](O)c4cccc(Cl)c4)cc[nH]c3=O)nc12` returned an IC50 above 5.12 µM.

Another assay has as its system BV-173. Nature of the assay: cells. As to conditions: Homo sapiens, BV-173. Type of assay: functional, cell-based, Homo sapiens.
Description: SANGER: Inhibition of human BV-173 cell growth in a cell viability assay.
Molecule `Cc1cc(N2CCOCC2)cc2[nH]c(-c3c(NC[C@@H](O)c4cccc(Cl)c4)cc[nH]c3=O)nc12` registered an IC50 above 5.12 µM.

The test system of another assay is COLO-800. The assay can be described thus: cells. Type of assay: functional, cell-based, Homo sapiens. As to conditions: Homo sapiens, COLO-800.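 Also: growth inhibition of COLO-800 cells, read out with a cell viability assay.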
Description: SANGER: Inhibition of human COLO-800 cell growth in a cell viability assay.
In turn, `Cc1cc(N2CCOCC2)cc2[nH]c(-c3c(NC[C@@H](O)c4cccc(Cl)c4)cc[nH]c3=O)nc12` displayed an IC50 above 5.12 µM.

A further assay deals with EOL1. The assay can be described thus: cells. The format is functional, cell-based, Homo sapiens. As to conditions: Homo sapiens, EOL1.
Description: SANGER: Inhibition of human EoL-1-cell cell growth in a cell viability assay.
In turn, `Cc1cc(N2CCOCC2)cc2[nH]c(-c3c(NC[C@@H](O)c4cccc(Cl)c4)cc[nH]c3=O)nc12` showed an IC50 of 1.57 µM.

Another assay has as its system ES7. Nature of the assay: cells. The format is functional, cell-based, Homo sapiens. The conditions noted are these: Homo sapiens, ES7.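 Also: growth inhibition of cultured human ES7 cells, read out as cell viability.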
Description: SANGER: Inhibition of human ES7 cell growth in a cell viability assay.
For `Cc1cc(N2CCOCC2)cc2[nH]c(-c3c(NC[C@@H](O)c4cccc(Cl)c4)cc[nH]c3=O)nc12`, the IC50 is above 5.12 µM.

The test system of another assay is A101D. The assay can be described thus: cells. The format is functional, cell-based, Homo sapiens. The conditions noted are these: Homo sapiens, A101D.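 Also: growth inhibition of the cell line, measured with a viability assay.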
Description: SANGER: Inhibition of human A101D cell growth in a cell viability assay.
The molecule `Cc1cc(N2CCOCC2)cc2[nH]c(-c3c(NC[C@@H](O)c4cccc(Cl)c4)cc[nH]c3=O)nc12` yielded a 50% inhibitory concentration (IC50) of 1.89 µM.

A further assay has as its system NCI-H69. Nature of the assay: cells. The format is functional, cell-based, Homo sapiens. As to conditions: Homo sapiens, NCI-H69.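 Also: growth inhibition of the cell line, read out with a cell viability assay.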
Description: SANGER: Inhibition of human NCI-H69 cell growth in a cell viability assay.
With `Cc1cc(N2CCOCC2)cc2[nH]c(-c3c(NC[C@@H](O)c4cccc(Cl)c4)cc[nH]c3=O)nc12`, the IC50 was above 5.12 µM.

A further assay concerns U-87 MG. Nature of the assay: cells. Type of assay: functional, cell-based, Homo sapiens, U-87MG ATCC. As to conditions: Homo sapiens, U-87 MG.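 Also: growth inhibition of the cells measured with a viability assay.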
Description: SANGER: Inhibition of human U-87-MG cell growth in a cell viability assay.
Regarding `Cc1cc(N2CCOCC2)cc2[nH]c(-c3c(NC[C@@H](O)c4cccc(Cl)c4)cc[nH]c3=O)nc12`, the IC50 is above 5.12 µM.

A further assay has as its system LB1047-RCC. The assay can be described thus: cells. Type of assay: functional, cell-based, Homo sapiens. The conditions noted are these: Homo sapiens, LB1047-RCC.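 Also: inhibition of cell growth, determined with a cell viability assay.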
Description: SANGER: Inhibition of human LB1047-RCC cell growth in a cell viability assay.
`Cc1cc(N2CCOCC2)cc2[nH]c(-c3c(NC[C@@H](O)c4cccc(Cl)c4)cc[nH]c3=O)nc12` displayed an IC50 of 0.642 µM.

The subject of another assay is TE-8. The assay can be described thus: cells. The format is functional, cell-based, Homo sapiens. The conditions noted are these: Homo sapiens, TE-8.
Description: SANGER: Inhibition of human TE-8 cell growth in a cell viability assay.
As for `Cc1cc(N2CCOCC2)cc2[nH]c(-c3c(NC[C@@H](O)c4cccc(Cl)c4)cc[nH]c3=O)nc12`, the 50% inhibitory concentration (IC50) was 0.506 µM.

A further assay concerns P30-OHK. Nature of the assay: cells. Type of assay: functional, cell-based, Homo sapiens. The conditions noted are these: Homo sapiens, P30-OHK.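 Also: growth inhibition of the P30-OHK cell line, read out with a cell viability assay.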
Description: SANGER: Inhibition of human P30-OHK cell growth in a cell viability assay.
On to `Cc1cc(N2CCOCC2)cc2[nH]c(-c3c(NC[C@@H](O)c4cccc(Cl)c4)cc[nH]c3=O)nc12`, for which the IC50 is above 5.12 µM.

For the next assay, the system named is ATN-1. Nature of the assay: cells. The format is functional, cell-based, Homo sapiens. The conditions noted are these: Homo sapiens, ATN-1.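 Also: growth inhibition of human ATN-1 cells, read out with a cell viability assay.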
Description: SANGER: Inhibition of human ATN-1 cell growth in a cell viability assay.
Molecule `Cc1cc(N2CCOCC2)cc2[nH]c(-c3c(NC[C@@H](O)c4cccc(Cl)c4)cc[nH]c3=O)nc12` had an IC50 of 0.25 µM.

In another assay the test system is NOMO-1. Nature of the assay: cells. The format is functional, cell-based, Homo sapiens. As to conditions: Homo sapiens, NOMO-1.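 Also: growth inhibition of human NOMO-1 cells measured by a cell viability assay.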
Description: SANGER: Inhibition of human NOMO-1 cell growth in a cell viability assay.
Turning to `Cc1cc(N2CCOCC2)cc2[nH]c(-c3c(NC[C@@H](O)c4cccc(Cl)c4)cc[nH]c3=O)nc12`, the IC50 is above 5.12 µM.

The subject of a further assay is NCI-H1355. The assay can be described thus: cells. Type of assay: functional, cell-based, Homo sapiens. As to conditions: Homo sapiens, NCI-H1355.
Description: SANGER: Inhibition of human NCI-H1355 cell growth in a cell viability assay.
`Cc1cc(N2CCOCC2)cc2[nH]c(-c3c(NC[C@@H](O)c4cccc(Cl)c4)cc[nH]c3=O)nc12` registered an IC50 of 0.553 µM.

The subject of another assay is HCC2218. The assay can be described thus: cells. Type of assay: functional, cell-based, Homo sapiens. As to conditions: Homo sapiens, HCC2218.
Description: SANGER: Inhibition of human HCC2218 cell growth in a cell viability assay.
In turn, `Cc1cc(N2CCOCC2)cc2[nH]c(-c3c(NC[C@@H](O)c4cccc(Cl)c4)cc[nH]c3=O)nc12` gave an IC50 above 5.12 µM.

For a further assay, the system named is ETK-1. The assay can be described thus: cells. The format is functional, cell-based, Homo sapiens. As to conditions: Homo sapiens, ETK-1.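 Also: growth inhibition of human ETK-1 cells, read out with a cell viability assay.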
Description: SANGER: Inhibition of human ETK-1 cell growth in a cell viability assay.
The molecule `Cc1cc(N2CCOCC2)cc2[nH]c(-c3c(NC[C@@H](O)c4cccc(Cl)c4)cc[nH]c3=O)nc12` came in with an IC50 of 0.0961 µM.

The test system of a further assay is LNCaP-Clone-FGC. The assay can be described thus: cells. The format is functional, cell-based, Homo sapiens. As to conditions: Homo sapiens, LNCaP-Clone-FGC.
Description: SANGER: Inhibition of human LNCaP-Clone-FGC cell growth in a cell viability assay.
As for `Cc1cc(N2CCOCC2)cc2[nH]c(-c3c(NC[C@@H](O)c4cccc(Cl)c4)cc[nH]c3=O)nc12`, the IC50 is above 5.12 µM.

A further assay concerns RH-1. Nature of the assay: cells. The format is functional, cell-based, Homo sapiens. As to conditions: Homo sapiens, RH-1.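 Also: growth inhibition of human RH-1 cells, read out with a cell viability assay.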
Description: SANGER: Inhibition of human RH-1 cell growth in a cell viability assay.
For the molecule `Cc1cc(N2CCOCC2)cc2[nH]c(-c3c(NC[C@@H](O)c4cccc(Cl)c4)cc[nH]c3=O)nc12`, the IC50 was above 5.12 µM.

The subject of the next assay is MSTO-211H. Nature of the assay: cells. Type of assay: functional, cell-based, Homo sapiens. The conditions noted are these: Homo sapiens, MSTO-211H.
Description: SANGER: Inhibition of human MSTO-211H cell growth in a cell viability assay.
The molecule `Cc1cc(N2CCOCC2)cc2[nH]c(-c3c(NC[C@@H](O)c4cccc(Cl)c4)cc[nH]c3=O)nc12` gave an IC50 above 5.12 µM.

In another assay the test system is A4-Fuk. Nature of the assay: cells. The format is functional, cell-based, Homo sapiens. As to conditions: Homo sapiens, A4-Fuk.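 Also: growth inhibition of A4-Fuk cells, read out by a cell viability assay.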
Description: SANGER: Inhibition of human A4-Fuk cell growth in a cell viability assay.
The molecule `Cc1cc(N2CCOCC2)cc2[nH]c(-c3c(NC[C@@H](O)c4cccc(Cl)c4)cc[nH]c3=O)nc12` showed an IC50 of 0.0578 µM.

A further assay deals with RPMI-8226. The assay can be described thus: cells. The conditions noted are these: Homo sapiens, RPMI-8226. The format is functional, cell-based, Homo sapiens.
Description: SANGER: Inhibition of human RPMI-8226 cell growth in a cell viability assay.
The molecule `Cc1cc(N2CCOCC2)cc2[nH]c(-c3c(NC[C@@H](O)c4cccc(Cl)c4)cc[nH]c3=O)nc12` displayed a half-inhibitory concentration (IC50) above 5.12 µM.

A further assay concerns HEL. The assay can be described thus: cells. The format is functional, cell-based, Homo sapiens. As to conditions: Homo sapiens, HEL.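 Also: growth inhibition of HEL cells, read out with a cell viability assay.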
Description: SANGER: Inhibition of human HEL cell growth in a cell viability assay.
`Cc1cc(N2CCOCC2)cc2[nH]c(-c3c(NC[C@@H](O)c4cccc(Cl)c4)cc[nH]c3=O)nc12` registered an IC50 of 1.9 µM.
